Results: patent publication US6399648B1, “N-oxides of heterocyclic ester, amide, thioester, or ketone for vision and memory disorders” (GPI NIL Holdings, Inc., priority 1998, dated 2002)
Like-named read-outs stand apart in the source and are kept apart here. Marks after values point to notes of the source that are not given here. One block for each compound: values may come before it.

What was measured:
FKBP12 = FKBP12 (Homo sapiens, UniProt P62942); experiment: Inhibition of FKBP peptidyl-prolyl isomerase (rotamase) activity, apparent Ki; format: biochemical
Sequence of FKBP12 (P62942 whole entry, species assumed): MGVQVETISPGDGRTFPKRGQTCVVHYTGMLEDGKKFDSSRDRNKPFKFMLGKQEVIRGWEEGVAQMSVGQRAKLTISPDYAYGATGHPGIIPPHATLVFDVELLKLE

[1] = test system: retinal ganglion cells and optic nerve axons; experiment: In vivo retinal ganglion cell and optic nerve axon tests after optic nerve transection; settings: for Efficacy in protecting retinal ganglion cell axons from degeneration following optic nerve transection: Table V; for RGC Counts (mean density of Fluoro-gold labeled retinal ganglion cells in 400 μm × 400 μm fields): 10 mg/kg/day sc;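 for all read-outs here: adult male Sprague Dawley rats with bilateral intraorbital optic nerve transection after retrograde fluorogold labeling of retinal ganglion cells, examined on fixed retinas and optic nerve stumps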
[2] = Clearance (Table V comments, no method given); format: in vitro ADME
aged mice = experiment: Morris watermaze spatial learning and memory in aged rodents; format: in vivo; settings: aged impaired mice, 10 mg/kg daily, retention testing after 3 weeks of dosing
Text: The Morris watermaze is widely used for assessing spatial memory formation and retention in experimental animals. The test depends on the animals ability to utilize spatial visual information in order to locate a submerged escape platform in a water tank. It is important that the tank itself be as devoid of specific visual features as possible—thus, it is always circular in shape, the sides are kept smooth and in uniform dull colors, and the water is rendered opaque with nontoxic watercolor pigment or powdered milk. This is to ensure that the animal navigates only by the use of more distant visual cues, or by the use of intra-maze cues specifically provided by the experimenter. The animals' path, speed, and swim time are tracked with a ceiling camera for later computerized analysis. Over the course of several successive trials, spatial learning can therefore be defined as a drop of distance swum, or time elapsed, from placement in the tank until escape onto the invisible platform. The procedure involved using-three-month old (young) and 18-19 month old male C57BL/6Nia aged) mice which habituated to the well known and conventional Morris watermaze during a 4 trials/day, 3-4 day visible platform training phase. […] Swim Distances (cm) were analyzed in a 7×5 ANOVA including Groups and Blocks (1-5) as factors in the analysis, treating Blocks as a repeated measure.

retinal ganglion cells = experiment: Retinal ischemia: degeneration of retinal ganglion cells, optic nerve axons and myelin; format: in vivo, rat; settings: 10 mg/kg s.c. 1 hour prior to ischemia and 10 mg/kg/day for next four days, 28 days after ischemia
Text: Retinal ganglion cells were retrogradely labeled in adult rats by bilateral injection of fluorogold in their lateral geniculate nuclei. Labeled ganglion cells in the normal rat retina appear as white profiles against the dark background (FIG. 1A). Complete retinal ischemia was produced by infusing normal saline solution into the retinal vitreous cavity of each eye until the intraocular pressure exceeded arterial blood pressure. 28 days after the ischemic episode extensive degeneration of retinal ganglion cell was evidenced by massive reduction in the density of fluorogold labeled cells (FIG. 1B).

[3] = Table V comments, read-out: Ki rotomase
[4] = ONT, 14 days treatment, 90 days after transection, ± SEM
[5] = ONT, 14 days treatment, 90 days after transection
[6] = ONT, 28 days treatment, 90 days after transection
[7] = ONT, 28 days treatment, 90 days after transection, ± SEM

Ki (FKBP12; [3]): > 10 µM
SMILES: CCC(C)(C)C(=O)C(=O)N1CCCCC1C(=O)O (centres unmarked) [G]
Efficacy in protecting retinal ganglion cell axons from degeneration following optic nerve transection ([1]; ± SEM): 34.0% ± 4.8% SEM

Clearance [2]: 4.5 µL/min
SMILES: CCC(C)(C)C(=O)C(=O)N1CCCCC1C(=O)SCCC(c1ccccc1)c1ccccc1 (centres unmarked) [Compound K]
Efficacy in protecting retinal ganglion cell axons from degeneration following optic nerve transection ([1]; ± SEM): 13.0% ± 4.2% SEM

SMILES: CCC(C)(C)C(=O)C(=O)N1CCCC1C(=O)O (centres unmarked) [L]
Ki (FKBP12; [3]): > 7.74 µM
Efficacy in protecting retinal ganglion cell axons from degeneration following optic nerve transection ([1]; ± SEM): 7.8% ± 3.0% SEM

SMILES: CCC(C)(C)C(=O)C(=O)N1CCC[C@H]1C(=O)OCCCc1cccnc1 [GPI 1046]
Clearance [2]: 63.8 µL/min
spatial memory performance (swim distance) in retention testing (aged mice): significantly enhanced spatial memory performance
protection of fluorogold labeled retinal ganglion cells (retinal ganglion cells): noticeable protection of a large proportion of the vulnerable ganglion cell population
preservation of axons of protected neurons in the proximal stump ([1]; Example 13, 10 mg/kg/day s.c. for 28 days, 90 days after transection): preserved the axons of virtually all protected neurons
perikaryal neuroprotection: ganglion cell population spared ([1]; Example 13, 10 mg/kg/day s.c. for 28 days, sacrificed 90 days after transection): 25%
RGC Counts (mean density of Fluoro-gold labeled retinal ganglion cells in 400 μm × 400 μm fields) [1, 4]: small but not significant increase
Distal optic nerve myelin basic protein Density, loss [1, 5]: slightly increase the density of myelin
Distal optic nerve stump shrinkage (cross sectional area vs sham) [1, 5]: did not protect against shrinkage of the distal stump
ON axon Count (axonal density multiplied by ON area) [1, 5]: 6820
increased ON axon density (adjusted for optic nerve diameter) [1, 5]: 1.5×
ON Axon density (RT97 labeled optic nerve axons in 200 μm × 200 μm region) [1, 4]: 569 ± 23
Proximal optic nerve myelin basic protein Density, % recovery [1, 4]: 1.6 ± 3.0 SEM % recovery
RGC Counts (mean density of Fluoro-gold labeled retinal ganglion cells in 400 μm × 400 μm fields) ([1]; ONT, 28 days treatment, 90 days after transection, SEM): 67.9 ± 5.8
Distal optic nerve stump, less shrinkage [1, 6]: prevented cross sectional shrinkage of the distal stump
ON axon Count (axonal density multiplied by ON area) [1, 6]: 22,861*
increased ON axon density (adjusted for optic nerve diameter) [1, 6]: 5.0×
ON Axon density (RT97 labeled optic nerve axons in 200 μm × 200 μm region) [1, 7]: significant increase
Proximal optic nerve myelin basic protein Density, % recovery [1, 7]: 70 ± 6.3 SEM % recovery
Efficacy in protecting retinal ganglion cell axons from degeneration following optic nerve transection ([1]; ± SEM): 60.5% ± 3.9 SEM

Ki (FKBP12; Table B, rotamase inhibition, read-out: Ki): 0.225 µM
SMILES: CCC(C)(C)C(=O)C(=O)N1CCC[C@H]1C(=O)OCCCc1ccc[n+]([O-])c1 [Compound 1, 3-(3-Pyridyl)-1-propyl(2S)-1-(1,1-Dimethyl-1,2-dioxopentyl)-2-pyrrolidine-carboxylate, N-oxide]

SMILES: CCC(C)(C)C(=O)C(=O)N1CCCCC1C(N)=O (centres unmarked) [H]
Efficacy in protecting retinal ganglion cell axons from degeneration following optic nerve transection ([1]; ± SEM): 30.3% ± 8.0% SEM

Clearance [2]: 1.5 µL/min
SMILES: CCC(C)(C)C(=O)C(=O)N1CCCC1C(=O)CCCCc1cccnc1 (centres unmarked) [J]
Efficacy in protecting retinal ganglion cell axons from degeneration following optic nerve transection ([1]; ± SEM): 15.8% ± 4.8% SEM

SMILES: O=C(SCCCc1ccccc1)C1CCCN1C(=O)NC12CC3CC(CC(C3)C1)C2 (centres unmarked) [B]
Efficacy in protecting retinal ganglion cell axons from degeneration following optic nerve transection ([1]; ± SEM): 100.0% ± 5.2% SEM

SMILES: O=C(OCCCc1cccnc1)[C@@H]1CCCN1C(=S)NC1CCCCC1 [I]
Efficacy in protecting retinal ganglion cell axons from degeneration following optic nerve transection ([1]; ± SEM): 23.8% ± 5.3 SEM

Clearance ([2]; unit printed μl/ml): 41.8 μl/ml
SMILES: CCC(C)(C)C(=O)C(=O)N1CCCCC1C(=O)OC(CCc1ccccc1)CCc1ccccc1 (centres unmarked) [E]

SMILES: O=C(SCCCc1ccccc1)C1CCCN1S(=O)(=O)Cc1ccccc1 (centres unmarked) [C]
Efficacy in protecting retinal ganglion cell axons from degeneration following optic nerve transection ([1]; ± SEM): 60.4% ± 3.1 SEM

Clearance ([2]; unit printed μl/ml): 21.9 μl/ml
SMILES: CN(C)C(=O)N1CCCC1C(=O)SCCCc1ccccc1 (centres unmarked) [N]

SMILES: CCC(C)(C)C(=O)C(=O)N1CCC[C@H]1C(=O)SCCC(c1ccccc1)c1ccccc1 [M]
Efficacy in protecting retinal ganglion cell axons from degeneration following optic nerve transection ([1]; ± SEM): −6.3% + 3.9% SEM
